The record followed here is patent US12433961B2, “Near-infrared fluorescent probe specifically targeting tumors as well as synthesis method and use thereof” (NANJING NUOYUAN MEDICAL INSTRUMENT CO. LTD, priority 2022, dated 2025).

The data set deals with colorectal cancer HT29 subcutaneous tumor. In words: In-vivo near-infrared fluorescence imaging in subcutaneous HT29 tumor-bearing mouse model. Conditions: HT29 tumor-bearing mice, 30 nmol tail vein, imaging 0 h-48 h. Here is the method: In a subcutaneous tumor HT29 tumor-bearing mouse model, YQ-H (30 nmol, dissolved with 100 μL of normal saline for injection) series probes respectively underwent tail vein administration, fluorescence imaging was respectively photographed at different time points (0 h, 6 h, 12 h, 24 h and 48 h in sequence) by small animal living imaging CCD.

With `CC1(C)C(/C=C/C2=C(SCCC(=O)NCCCCCC(=O)N(CCS(C)(=O)=O)Cc3ccc(-c4ccc5ncnc(Nc6ccc(OCc7cccc(F)c7)c(Cl)c6)c5c4)o3)C(=C/C=C3/N(CCCS(=O)(=O)O)c4ccc(S(=O)(=O)O)cc4C3(C)C)/CCC2)=[N+](CCCS(=O)(=O)O)c2ccc(S(=O)(=O)[O-])cc21` [YQ-H-03], the “fluorescence signals in liver” value is listed as “strong fluorescence signals in liver” and the tumor targeting effect result is reported as “a certain tumor targeting effect”.
